In US12582652B2, “3-(ethoxydifluoromethyl)-6-(5-fluoro-6-(2,2,2-trifluoroethoxy)pyridin-3-yl)-[1,2,4]triazolo[4,3-a]pyrazine as an ion channel modulator” (Praxis Precision Medicines, Inc., priority 2022, dated 2026):

Legend:
[1] = Phase 1 SAD/MAD/food effect trial: pharmacokinetics; assay type: in vivo, human
Description: This was a 3-part Phase 1 clinical trial in healthy participants aged 18-55 years. Parts A and B were randomized, placebo-controlled and evaluated the effects of single (2.5-150 mg) and multiple (30-120 mg, 14 days QD (every day)) ascending oral doses of Compound 1, respectively. Part C was an open-label, randomized, crossover design evaluating the PK of a single oral dose (90 mg) in fasted and fed states. In Parts A (n=64) and B (n=32), participants were randomized 3:1 to Compound 1 or placebo (n=8/cohort). In Part C (n=16), participants were randomized 1:1 to one of two treatment sequences receiving a single dose of 90 mg Compound 1 in the fed (following a high-fat/high calorie meal) or fasted (≥10 hours after the last, and 4 hours before the next, meal) state.

[2] = tested on: Scn8a^N1768D/+ transgenic mouse; assay: Audiogenic induced seizures in Scn8a N1768D/+ mouse model; assay type: in vivo
Description: Both male and female N1768D (D/+) mice, 8-12 weeks old, were used in the study. Compound 1 was administered orally (p.o.) at three doses (1 mg/kg, 3 mg/kg, 10 mg/kg) and also vehicle 1 hour prior to testing. The mice were randomized such that at the completion of the study each individual mouse had been evaluated at each test dose of Compound 1 and vehicle. A minimum of 3 days was allowed to elapse before retesting the mice. At the time of testing, mice were taken from their home cage and transferred to a clean test cage located in a separate testing room where they were allowed to acclimate for about 20 seconds before the onset of the acoustic stimulus. To induce audiogenic seizures, a 15 kHz signal was generated using Tone Generator software (NCH Software, Inc.), amplified using a Kinter K3118 stereo amplifier (Kinter USA), and converted to sound using a small 3-watt speaker lowered into the testing chamber. The stimulus was applied for 30 seconds unless a seizure was detected before the 30-second time point, in which case the audiogenic stimulus was terminated. Videos of the event were recorded using a laptop webcam. On the final day of testing, brains and plasma were collected from the D/+ mice immediately after audiogenic seizure testing to determine concentrations of Compound 1. A separate cohort of 8 age-matched WT mice were also included (n=2/dose level) to achieve a sample size of n=4 for PK for each dose level. Brain and plasma specimens were submitted for bioanalytical analysis.

human NaV1.6 = target: T1, human NaV1.6 (Homo sapiens, UniProt Q9UQD0); assay: Peak INa tonic block (TB), PatchXpress patch clamp; assay type: cell-based
T1 construct: stably expressing either human NaV1.6 (NP_055006); expressed in transfected cells
Description: HEK-293 cell lines stably expressing either human NaV1.6 (NP_055006), mouse NaV1.6 (NP_035453.2), or rat NaV1.6 (NP_062139) were used. All cells were seeded at 2×10^6 cells per Nunc T75 flask for 2 days in culture. At time of harvest for assays, the cell counts were approximately 6×10^6 cells. Cells were washed (1×) in DPBS (Hyclone, Cat #SH30028.03) for approximately 30 seconds. 1 mL of 1×0.05% Trypsin-EDTA (GIBCO Cat #25300-054) was added and swirled around to cover the bottom of the flask and was allowed to sit on the cells for approximately 4 minutes (±90% of the cells were lifted by light tapping of the flask). 10 mL of warmed media (DMEM high glucose media Hyclone, SH30022.02 supplemented with 10% Fetal Bovine Serum, 2 mM Sodium Pyruvate, 10 mM HEPES and 400 μg/mL G418) was added to inactivate the trypsin. Cells were triturated until a single cell suspension was achieved. A cell count was performed and cells were aliquoted into a 250 ml centrifuge tube at a concentration of 2×10^5/mL in +30 ml of prewarmed media. The 250 mL centrifuge tube was placed on a rocker in an incubator set at 28° C. and gently rocked for approximately 1 hour to allow cells to recover. Cell aliquots of 5 mL (1×10^6 cells) were placed in a 15 mL centrifuge tube and spun at 100×g for 2 minutes. Supernatant was removed leaving a cell pellet. 100 μL of external recording solution was added to the pellet and triturated 20 times to achieve a single cell suspension and then transferred to a 1.5 mL tube for placement in the PatchXpress® (Molecular Devices).
Compound 1 was provided as powder and prepared as 10 mM DMSO stocks in 1 dram glass vials prior to assay. Immediately prior to assay, Compound 1 was diluted with DMSO to 300×, the designated final assay concentration. Assay dilutions (1× concentration) were prepared by pipetting 3 μL of diluted Compound 1 into 897 μL of extracellular solution in a 1 mL glass shell vial. Vials were capped and vortexed until initiation of the PatchXpress® (Molecular Devices) recording protocol.
The same intracellular recording solution was used for the persistent and peak INa assays, which contained: 135 mM CsF, 10 mM CsCl, 5 mM NaCl, 10 mM HEPES, 5 mM EGTA at a pH of 7.4 (adjusted with CsOH) and a measured osmolarity of 298 mOsm (adjusted with mannitol). For the persistent INa assay, the external recording solution contained: 135 mM NaCl, 5.4 mM KCl, 5 mM glucose, 2 mM CaCl2), 1 mM MgCl2, 10 mM HEPES, and 200 nM ATX-II (sea anemone toxin, Alomone Labs; Jerusalem, Israel) at a pH of 7.4 (adjusted with NaOH) and a measured osmolarity of 300 mOsm (adjusted with mannitol). For the peak INa assays, the external recording solution contained: 100 mM NaCl, 35 mM NMDG, 5.4 mM KCl, 5 mM glucose, 2 mM CaCl2), 1 mM MgCl2, and 10 mM HEPES at a pH of 7.4 (adjusted with NaOH) and a measured osmolarity of 300 mOsm (adjusted with mannitol).
All studies were performed using the PatchXpress® (Molecular Devices) automated patch clamp platform (Molecular Devices) using the whole cell configuration. Recordings were performed at room temperature. Data were collected using Patch Commander software (Molecular Devices) and processed using DataXpress 2.0 (Molecular Devices). Cell acceptance criteria were continuously monitored by custom scripts during the recording. Acceptance criteria for all assays were: baseline peak INa>800 pA, Rseal>200 MΩ, and, where appropriate, persistent INa>100 pA. Compensation was 50% and leak subtraction was not used. Currents were filtered at 5 kHz and digitized at 32.5 kHz. Raccess and Rseal were monitored throughout the recording and cells with Raccess>10 MΩ or Rseal<200 MΩ were terminated automatically by script.
Tonic Block (TB): Tonic Block (TB) protocols used low stimulation rates (about 0.1 Hz) and negative potentials (−120 mV) to keep channels in closed (resting) states. Pharmacology was measured during peak INa in response to step to 0 mV. No leak subtraction was used.

healthy participants = assay: 2-part Phase 1 trial (28 days; OXC combination): qEEG and ASSR pharmacodynamics; assay type: in vivo, human; settings: Part A, 90 mg QD 28 days
Description: This was a 2-part randomized, placebo-controlled Phase 1 trial in healthy participants aged 18-55 years. […] PD effects were examined on quantitative EEG (qEEG; resting and vigilant conditions) and stimulated EEG using auditory steady state response (ASSR). A total of 48 participants were enrolled; Part A, n=30; Part B, n=18.

T1 sequence (Q9UQD0 whole entry): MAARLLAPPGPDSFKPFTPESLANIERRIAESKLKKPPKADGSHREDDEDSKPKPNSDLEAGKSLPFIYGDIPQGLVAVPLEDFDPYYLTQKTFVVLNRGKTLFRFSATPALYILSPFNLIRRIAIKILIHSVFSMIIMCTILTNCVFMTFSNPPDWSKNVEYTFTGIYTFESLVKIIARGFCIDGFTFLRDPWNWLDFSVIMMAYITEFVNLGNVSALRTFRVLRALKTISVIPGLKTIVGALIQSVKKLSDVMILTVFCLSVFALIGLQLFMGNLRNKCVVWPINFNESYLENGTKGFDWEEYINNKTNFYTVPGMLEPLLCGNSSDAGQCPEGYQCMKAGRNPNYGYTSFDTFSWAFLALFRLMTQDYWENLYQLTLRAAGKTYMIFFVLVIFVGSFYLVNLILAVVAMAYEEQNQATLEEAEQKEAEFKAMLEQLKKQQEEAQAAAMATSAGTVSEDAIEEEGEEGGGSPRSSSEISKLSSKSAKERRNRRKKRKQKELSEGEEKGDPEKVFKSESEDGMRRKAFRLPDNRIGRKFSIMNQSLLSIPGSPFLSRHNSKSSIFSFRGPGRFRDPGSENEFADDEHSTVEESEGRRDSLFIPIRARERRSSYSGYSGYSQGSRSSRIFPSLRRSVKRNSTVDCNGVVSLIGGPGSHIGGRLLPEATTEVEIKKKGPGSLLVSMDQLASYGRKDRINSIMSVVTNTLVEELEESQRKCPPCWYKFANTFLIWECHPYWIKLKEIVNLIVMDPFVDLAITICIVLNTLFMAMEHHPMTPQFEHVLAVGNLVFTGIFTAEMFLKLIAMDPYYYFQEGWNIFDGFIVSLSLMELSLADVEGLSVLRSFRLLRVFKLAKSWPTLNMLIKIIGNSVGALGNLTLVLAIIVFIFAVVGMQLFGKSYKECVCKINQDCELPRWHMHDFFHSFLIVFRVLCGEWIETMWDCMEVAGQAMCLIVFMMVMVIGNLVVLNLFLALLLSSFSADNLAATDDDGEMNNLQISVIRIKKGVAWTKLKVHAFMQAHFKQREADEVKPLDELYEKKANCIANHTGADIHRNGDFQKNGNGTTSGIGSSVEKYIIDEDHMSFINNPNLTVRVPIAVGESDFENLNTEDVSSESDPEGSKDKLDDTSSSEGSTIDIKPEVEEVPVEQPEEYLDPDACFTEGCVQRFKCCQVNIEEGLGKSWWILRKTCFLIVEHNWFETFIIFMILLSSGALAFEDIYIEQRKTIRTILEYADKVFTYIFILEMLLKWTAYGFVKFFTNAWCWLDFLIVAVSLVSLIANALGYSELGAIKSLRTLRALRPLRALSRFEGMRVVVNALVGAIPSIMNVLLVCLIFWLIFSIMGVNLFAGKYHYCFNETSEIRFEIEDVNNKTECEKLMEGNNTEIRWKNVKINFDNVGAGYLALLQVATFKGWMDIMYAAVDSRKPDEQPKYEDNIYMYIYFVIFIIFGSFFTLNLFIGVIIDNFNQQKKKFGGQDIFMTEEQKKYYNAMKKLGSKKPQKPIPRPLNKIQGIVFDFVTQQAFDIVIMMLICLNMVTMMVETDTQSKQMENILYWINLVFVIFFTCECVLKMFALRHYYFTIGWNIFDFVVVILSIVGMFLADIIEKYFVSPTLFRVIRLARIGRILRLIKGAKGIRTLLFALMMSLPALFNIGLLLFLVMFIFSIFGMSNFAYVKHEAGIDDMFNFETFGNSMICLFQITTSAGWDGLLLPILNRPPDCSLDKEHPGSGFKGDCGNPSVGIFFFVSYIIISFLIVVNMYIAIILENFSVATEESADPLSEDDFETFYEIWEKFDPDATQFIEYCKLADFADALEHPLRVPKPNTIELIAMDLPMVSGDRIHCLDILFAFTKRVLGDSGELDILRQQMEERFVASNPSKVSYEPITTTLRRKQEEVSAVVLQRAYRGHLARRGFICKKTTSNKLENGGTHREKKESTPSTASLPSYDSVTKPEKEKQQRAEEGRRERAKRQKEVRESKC

CCOC(F)(F)c1nnc2cnc(-c3cnc(OCC(F)(F)F)c(F)c3)cn12 [Compound 1, 3-(ethoxydifluoromethyl)-6-(5-fluoro-6-(2,2,2-trifluoroethoxy)pyridin-3-yl)-[1,2,4]triazolo[4,3-a]pyrazine]
exposure over the evaluated dose range ([1]; healthy adults, oral, single 2.5-150 mg, multiple 30-120 mg QD): increased dose proportionally | increase in AUC, fed vs fasted state ([1]; single 90-mg dose): 14% | increase in Cmax, fed vs fasted state ([1]; single 90-mg dose): 9% | protection from audiogenic seizures ([2]; 10 mg/kg p.o.): complete protection | inhibition of audiogenic seizures ([2]; 1, 3, 10 mg/kg p.o., 1 hour prior to testing): dose dependent inhibition | protection from seizures (FIG. 14B) ([2]; Scn8a N1768D DEE mouse model): completely block seizures | Ratio to Pers. INa (Peak INa TB / persistent INa) (human NaV1.6; hNaV1.6): 60 | IC50 (human NaV1.6; hNaV1.6, 0.1 Hz, resting state): 8.47 µM | qEEG (Delta and Theta power) and ASSR (PLF and Evoked Power) vs placebo (healthy participants): Statistically significant differences
